According to PubChem BioAssay AID2060627 (Molecular Pharmacology Branch, DTP, NCI, 2025):
Values joined by “and” are separate entries in the source; they are usually repeats but may differ in a detail not shown here. Identical values can stand only once. One block for each compound: values may come before it.

Test system: 156681-154-R-J1-PDC complex spheroid viability
Test: Anticancer human tumor 156681-154-R-J1-PDC patient-derived melanoma cell line growth inhibition [CLK]
Conditions: for viability, T/C: stronger effect = lower value
How it was run: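 Multi-cell-type spheroids combined patient-derived tumor cells with HUVEC endothelial cells and human mesenchymal stem cells. Paired agents were dosed in half-log steps down from about clinical Cmax, or from 10 microM where Cmax was unknown.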

[1] = curve of first compound, second compound 0.0316 µM
[2] = curve of first compound, second compound 0.1 µM
[3] = curve of first compound, second compound 0.316 µM
[4] = curve of first compound, second compound 1 µM
[5] = curve of first compound, second compound 3.16 µM
[6] = curve of first compound, second compound 10 µM
[7] = second compound 0.0316 µM, first compound 0.0316 µM
[8] = second compound 0.0316 µM, first compound 0.1 µM
[9] = second compound 0.0316 µM, first compound 0.316 µM
[10] = second compound 0.0316 µM, first compound 1 µM
[11] = second compound 0.0316 µM, first compound 3.16 µM
[12] = second compound 0.0316 µM, first compound 10 µM
[13] = second compound 0.1 µM, first compound 0.0316 µM
[14] = second compound 0.1 µM, first compound 0.1 µM
[15] = second compound 0.1 µM, first compound 0.316 µM
[16] = second compound 0.1 µM, first compound 1 µM
[17] = second compound 0.1 µM, first compound 3.16 µM
[18] = second compound 0.1 µM, first compound 10 µM
[19] = second compound 0.316 µM, first compound 0.0316 µM
[20] = second compound 0.316 µM, first compound 0.1 µM
[21] = second compound 0.316 µM, first compound 0.316 µM
[22] = second compound 0.316 µM, first compound 1 µM
[23] = second compound 0.316 µM, first compound 3.16 µM
[24] = second compound 0.316 µM, first compound 10 µM
[25] = second compound 1 µM, first compound 0.0316 µM
[26] = second compound 1 µM, first compound 0.1 µM
[27] = second compound 1 µM, first compound 0.316 µM
[28] = second compound 1 µM, first compound 1 µM
[29] = second compound 1 µM, first compound 3.16 µM
[30] = second compound 1 µM, first compound 10 µM
[31] = second compound 3.16 µM, first compound 0.0316 µM
[32] = second compound 3.16 µM, first compound 0.1 µM
[33] = second compound 3.16 µM, first compound 0.316 µM
[34] = second compound 3.16 µM, first compound 1 µM
[35] = second compound 3.16 µM, first compound 3.16 µM
[36] = second compound 3.16 µM, first compound 10 µM
[37] = second compound 10 µM, first compound 0.0316 µM
[38] = second compound 10 µM, first compound 0.1 µM
[39] = second compound 10 µM, first compound 0.316 µM
[40] = second compound 10 µM, first compound 1 µM
[41] = second compound 10 µM, first compound 3.16 µM
[42] = second compound 10 µM, first compound 10 µM
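Also: spheroids exposed to the agents for seven days.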
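For viability, T/C in this document: 100% = DMSO vehicle control viability.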

SMILES: C#Cc1c(F)ccc2cc(O)cc(-c3ncc4c(N5CC6CCC(C5)N6)nc(OCC56CCCN5CC(F)C6)nc4c3F)c12 (stereo not given) + CN1CCN(c2cc(C(=O)Nc3cc4cc(-c5cnn(C)c5)ccc4cn3)ccn2)CC1
- IC50 [1]: > 10 µM
- IC50 [2]: > 10 µM
- IC50 [3]: < 0.0316 µM
- IC50 [4]: < 0.0316 µM
- IC50 [5]: < 0.0316 µM
- IC50 [6]: < 0.0316 µM
- viability, T/C [7]: 100%
- viability, T/C [8]: 81.5%
- viability, T/C [9]: 97%
- viability, T/C [10]: 120%
- viability, T/C [11]: 98.2%
- viability, T/C [12]: 119%
- viability, T/C [13]: 84.4%
- viability, T/C [14]: 86.7%
- viability, T/C [15]: 92.6%
- viability, T/C [16]: 100%
- viability, T/C [17]: 95.8%
- viability, T/C [18]: 97%
- viability, T/C [19]: 29%
- viability, T/C [20]: 22.5%
- viability, T/C [21]: 25.9%
- viability, T/C [22]: 26.7%
- viability, T/C [23]: 31.9%
- viability, T/C [24]: 20.6%
- viability, T/C [25]: 0.31%
- viability, T/C [26]: 2.37%
- viability, T/C [27]: 0.28%
- viability, T/C [28]: 0.23%
- viability, T/C [29]: 0.15%
- viability, T/C [30]: 1.07%
- viability, T/C [31]: 0.15%
- viability, T/C [32]: 0.39%
- viability, T/C [33]: 0.11%
- viability, T/C [34]: 0.49%
- viability, T/C [35]: 0.15%
- viability, T/C [36]: 0.12%
- viability, T/C [37]: 0.19%
- viability, T/C [38]: 2.4%
- viability, T/C [39]: 0.37%
- viability, T/C [40]: 0.17%
- viability, T/C [41]: 0.18%
- viability, T/C [42]: 0.17%

- IC50 [1]: 1.91 µM
- IC50 [2]: 1.48 µM
- IC50 [3]: 1.1 µM
- IC50 [4]: 0.116 µM
- IC50 [5]: < 0.0316 µM
- IC50 [6]: < 0.0316 µM
SMILES: COc1ccc([C@@H](O)c2cc(-c3ncnc4cc(N5CCOCC5)ccc34)c(F)cc2Cl)nn1 + CNC(=O)c1ccc(Nc2nc(OC3CCCC3)c3c(-c4ccc5nc(C)oc5c4)c[nH]c3n2)c(OC)c1
- viability, T/C [7]: 80.7%
- viability, T/C [8]: 97.2%
- viability, T/C [9]: 87.8%
- viability, T/C [10]: 69.8%
- viability, T/C [11]: 34.6%
- viability, T/C [12]: 29%
- viability, T/C [13]: 44.7%
- viability, T/C [14]: 64.6%
- viability, T/C [15]: 52.2%
- viability, T/C [16]: 56.8%
- viability, T/C [17]: 41.2%
- viability, T/C [18]: 21.3%
- viability, T/C [19]: 59.5%
- viability, T/C [20]: 62%
- viability, T/C [21]: 50.9%
- viability, T/C [22]: 52.9%
- viability, T/C [23]: 28.4%
- viability, T/C [24]: 20.7%
- viability, T/C [25]: 50.8%
- viability, T/C [26]: 55.6%
- viability, T/C [27]: 47.7%
- viability, T/C [28]: 29.2%
- viability, T/C [29]: 32.8%
- viability, T/C [30]: 9.5%
- viability, T/C [31]: 46.8%
- viability, T/C [32]: 47.6%
- viability, T/C [33]: 37.1%
- viability, T/C [34]: 33.7%
- viability, T/C [35]: 29.7%
- viability, T/C [36]: 5.99%
- viability, T/C [37]: 39.3%
- viability, T/C [38]: 30%
- viability, T/C [39]: 29.9%
- viability, T/C [40]: 28%
- viability, T/C [41]: 18.9%
- viability, T/C [42]: 2.83%

SMILES: C=C(F)C(=O)N1CCN(c2nc(OCC3CCCN3C)nc3c2CCN(c2cccc4cccc(Cl)c24)C3)CC1CC#N (stereo not given) + CN1CCN(c2cc(C(=O)Nc3cc4cc(-c5cnn(C)c5)ccc4cn3)ccn2)CC1
- IC50 [1]: 2.59 µM
- IC50 [2]: 1.77 µM
- IC50 [3]: < 0.0316 µM
- IC50 [4]: < 0.0316 µM
- IC50 [5]: < 0.0316 µM
- IC50 [6]: < 0.0316 µM
- viability, T/C [7]: 101%
- viability, T/C [8]: 107%
- viability, T/C [9]: 108%
- viability, T/C [10]: 81.1%
- viability, T/C [11]: 44%
- viability, T/C [12]: 0.43%
- viability, T/C [13]: 94.3%
- viability, T/C [14]: 94.6%
- viability, T/C [15]: 91.7%
- viability, T/C [16]: 79.5%
- viability, T/C [17]: 20%
- viability, T/C [18]: 0.6%
- viability, T/C [19]: 22.1%
- viability, T/C [20]: 24.1%
- viability, T/C [21]: 23.3%
- viability, T/C [22]: 24.7%
- viability, T/C [23]: 6.76%
- viability, T/C [24]: 1.76%
- viability, T/C [25]: 0.16%
- viability, T/C [26]: 0.32%
- viability, T/C [27]: 0.25%
- viability, T/C [28]: 0.59%
- viability, T/C [29]: 0.1%
- viability, T/C [30]: 0.24%
- viability, T/C [31]: 0.12%
- viability, T/C [32]: 1.74%
- viability, T/C [33]: 1.8%
- viability, T/C [34]: 0.12%
- viability, T/C [35]: 0.36%
- viability, T/C [36]: 1.56%
- viability, T/C [37]: 0.17%
- viability, T/C [38]: 0.19%
- viability, T/C [39]: 1.71%
- viability, T/C [40]: 0.23%
- viability, T/C [41]: 0.23%
- viability, T/C [42]: 0.8%

SMILES: Nc1ccn(C2OC(CO)C(O)C2(F)F)c(=O)n1 (stereo not given) + CN1CCN(c2cc(C(=O)Nc3cc4cc(-c5cnn(C)c5)ccc4cn3)ccn2)CC1
- IC50 [1]: < 0.0316 µM
- IC50 [2]: < 0.0316 µM
- IC50 [3]: < 0.0316 µM
- IC50 [4]: < 0.0316 µM
- IC50 [5]: < 0.0316 µM
- IC50 [6]: < 0.0316 µM
- viability, T/C [7]: 16.4%
- viability, T/C [8]: 16.1%
- viability, T/C [9]: 20.3%
- viability, T/C [10]: 14.8%
- viability, T/C [11]: 12%
- viability, T/C [12]: 16.9%
- viability, T/C [13]: 19%
- viability, T/C [14]: 13.4%
- viability, T/C [15]: 12.9%
- viability, T/C [16]: 12.8%
- viability, T/C [17]: 10.9%
- viability, T/C [18]: 12.8%
- viability, T/C [19]: 13.8%
- viability, T/C [20]: 14%
- viability, T/C [21]: 10.1%
- viability, T/C [22]: 11.7%
- viability, T/C [23]: 16.5%
- viability, T/C [24]: 9.83%
- viability, T/C [25]: 0.16%
- viability, T/C [26]: 0.82%
- viability, T/C [27]: 0.37%
- viability, T/C [28]: 1.65%
- viability, T/C [29]: 0.78%
- viability, T/C [30]: 1.59%
- viability, T/C [31]: 0.16%
- viability, T/C [32]: 1.54%
- viability, T/C [33]: 0.42%
- viability, T/C [34]: 0.1%
- viability, T/C [35]: 4.55%
- viability, T/C [36]: 0.67%
- viability, T/C [37]: 0.15%
- viability, T/C [38]: 2.7%
- viability, T/C [39]: 0.29%
- viability, T/C [40]: 4.06%
- viability, T/C [41]: 1.19%
- viability, T/C [42]: 2.59%

- IC50 (curve of compound): > 0.1 µM
SMILES: Cn1ncnc1[C@H]1c2n[nH]c(=O)c3cc(F)cc(c23)N[C@@H]1c1ccc(F)cc1
- viability, T/C (compound 0.000316 µM): 87.6% and 89%
- viability, T/C (compound 0.001 µM): 88.1% and 94.1%
- viability, T/C (compound 0.00316 µM): 91.8% and 78.8%
- viability, T/C (compound 0.01 µM): 80.4% and 83%
- viability, T/C (compound 0.0316 µM): 60.7% and 65.9%
- viability, T/C (compound 0.1 µM): 57% and 63.1%
